2 compounds from patent US20260317546A1, “PRETARGETED BIMODAL IMAGING AGENTS” (KØBENHAVNS UNIVERSITET, priority 2023, published 2026) can be followed below.

In experiment [1] the test system is anti-TAG72 mAb CC49 modified with TCO-tags (CC49-TCO) in LS174T tumor xenografts.
Method: This assay employs anti-TAG72 mAb CC49 modified with TCO-tags (CC49-TCO) and [111In]In-DOTA-PEG11-BisPy-Tz (FIG. 1) with well-established performance in pretargeted imaging of TAG72 expressing LS174 tumor xenografts.
LS174T xenograft-bearing mice are injected with CC49-TCO. After allowing for accumulation for 72 h, the tetrazine to be evaluated is injected via the tail vein, followed by [111In]In-DOTA-PEG11-BisPy-Tz after 1 h. in vivo performance of the tetrazine to be evaluated can therefore be correlated to tumor uptake of [111In]In-DOTA-PEG11-BisPy-Tz after 22 h. Increased in vivo performance is reflected by lower tumor uptake (see FIG. 1).
Further, a negative control (−C) and a positive control (+C) are included.
Experiment [2] concerns TCO-modified CC49 (CC49-TCO) targeting TAG-72 in human colorectal cancer LS174T xenograft tumors. Description: Pretargeted fluorescence imaging, ex vivo fluorescence measurements of selected organs. The class given is in vivo, Balb/c nude mice. As to conditions: TCO-modified CC49 vs non-modified CC49 (control); compound 8 i.v. 72 h after antibody, 86.5 μg, 116.7 nmol; 1 h post injection; 488 nm excitation, 525/20 emission. As for the experimental part: Pretargeted imaging of compound 8 of Example 1 was tested in vivo.
Pretargeted imaging of compound 8 of Example 1 was tested in vivo using the monoclonal antibody CC49 targeting TAG-72 in human colorectal cancer LS174T xenograft tumors. Tumors were established in 7-8 week old Balb/c nude mice and after 10 days, the animals were injected i.v. with either 50 μg (0.33 nmol) TCO-modified CC49 (CC49-TCO, ~3.5 TCO/mAb), or non-modified CC49 (control) (n=3 per group). After 72 hours, compound 8 (~100 equivalents per TCO, 86.5 μg, 116.7 nmol) in 100 μL of PBS (pH=7.4) was injected i.v.. One hour post injection, selected organs were harvested for ex vivo fluorescence measurements using a Amersham Typhoon 5 laser scanner platform (GE healthcare Europe) using a 488 nm excitation laser and 525/20 emission filter.

For the compound `CC1=CC(C)=[N+]2C1=C(c1ccnc(-c3nnc(-c4ccc(CN(CC(=O)O)CC(=O)O)cn4)nn3)c1)c1c(C)cc(C)n1[B-]2(F)F` [Compound 7, 2,2′-(((6-(6-(4-(5,5-difluoro-1,3,7,9-tetramethyl-5H-4λ4,5λ4-dipyrrolo[1,2-c:2′,1′-f][1,3,2]diazaborinin-10-yl)pyridin-2-yl)-1,2,4,5-tetrazin-3-yl)pyridin-3-yl)methyl)azanediyl)diacetic acid], the blocking effect in experiment [1] came out at 93%. As for `CC1=CC(C)=[N+]2C1=C(c1ccc(-c3nnc(-c4ccc(CN(CC(=O)O)CC(=O)O)cn4)nn3)nc1)c1c(C)cc(C)n1[B-]2(F)F` [Compound 8, 2,2′-(((6-(6-(5-(5,5-difluoro-1,3,7,9-tetramethyl-5H-4λ4,5λ4-dipyrrolo[1,2-c:2′,1′-f][1,3,2]diazaborinin-10-yl)pyridin-2-yl)-1,2,4,5-tetrazin-3-yl)pyridin-3-yl)methyl)azanediyl)diacetic acid], in experiment [1], the blocking effect is 98%. The “fluorescence in tumor (ex vivo)” value in experiment [2] was “higher fluorescence in tumor”.
